Experimental data published in US12545704B2, “Peptide for treating inflammation and wounds” (NIBEC CO., LTD., priority 2019, dated 2026).

What was measured:
ZO-1 = assay: Real-time RT-PCR of wound-healing marker ZO-1 in colonic epithelial cells; type: cell-based; settings: Caco-2 cells; 50 and 100 μg/ml; 3 days; FIG. 4
Method: (§1) In order to confirm the expression level of the wound-healing marker in colonic epithelial cells (Caco-2 cell, ATCC® HTB-37™) by the peptide according to the present invention, colonic epithelial cells were dispensed in an amount of 5×10^6 cells/well in a 6-well plate and then cultured for 24 hours in DMEM (Dulbecco's Modified Eagle Medium, Gibco). The cells were treated with the peptides of SEQ ID NOS: 1, 2, and 3 at concentrations of 50 and 100 μg/ml and then cultured for up to 3 days. After 3 days, the cells were harvested and the gene expression levels of E-cadherin protein, which is highly expressed in colonic epithelial cells, and ZO-1 protein, which is highly expressed at the tight junction between colonic epithelial cells, were measured through real-time RT-PCR.
(§2) RNA was extracted from the obtained cells using TRIzol, and cDNA was synthesized using a kit from Thermo Scientific (cat. No. K1641). The same amount of cDNA was amplified by 40 cycles at 95° C.-60° C. using a SYBR green PCR master mix and a StepOnePlus™ Real-Time PCR System available from Applied Biosystems, and the ΔΔct values of individual groups were compared. The nucleotide sequences of the PCR primers used for amplification of each gene are as follows.

type IV collagen = assay: Slot blotting, selectivity to collagen types: type IV (Experimental Example 2); type: binding; settings: peptide up to 100 μg/mL, FIG. 3
Method: (§3) In order to confirm the selectivity of peptides of SEQ ID NOS: 1 to 3 to collagen types, slot blotting was performed for types I, IV and VII collagen. The NC membrane was activated with TBST, and the peptides of SEQ ID NOS: 1, 2 and 3 were placed in each well at different concentrations (5, 10, 25, 50, and 100 μg/mL) and allowed to bind to the NC membrane in a vacuum for 2 hours. A 1% solution of each of types I, IV and VII collagen (MyBioSource, Inc., San Diego, CA, USA, MBS2018615) was added to the peptide-bound membrane and allowed to bind to the membrane in a vacuum for 2 hours. The membrane was washed with TBST, and the membrane to which the peptides and types I, IV, and VII collagen were attached was allowed to react with a primary rabbit anti-human type VII collagen antibody (MyBioSource, Inc., San Diego, CA, USA, MBS2004594) at a dilution ratio of 1:800 and with a secondary antibody goat anti-rabbit Ig G (BETHYL Lab., Montgomery, TX, USA, A90-116P) at a dilution ratio of 1:5000. The reacted membrane was washed with TBST, and a chemiluminescence test was performed using WEST-one.

type I collagen = target: T1, type I collagen (Homo sapiens, UniProt P02452+P08123); assay: Slot blotting, selectivity to collagen types: type I (Experimental Example 2); type: binding; settings: peptide at 5, 10, 25, 50 and 100 μg/mL, FIG. 3
T1 construct: purchased MyBioSource, Inc
Method: as §3

type VII collagen [1] = target: T2, type VII collagen (Homo sapiens, UniProt Q02388); assay: Slot blotting, binding ability to type VII collagen (Experimental Example 1); settings: peptide at 5, 10 and 20 μg/mL, FIG. 2
T2 construct: purchased MyBioSource, Inc. MBS2018615
Method: Slot blotting was performed to confirm the ability of the peptides of SEQ ID NOS: 1 and 3 to bind to type VII collagen. The NC membrane was activated with TBST, and the peptides of SEQ ID NOS: 1 and 3 were placed in each well at different concentrations (5, 10, and 20 μg/mL) and allowed to bind to the NC membrane in a vacuum for 2 hours. A 1% solution of type VII collagen (MyBioSource, Inc., San Diego, CA, USA, MBS2018615) was added to the peptide-bound membrane and allowed to bind to the membrane in a vacuum for 2 hours. After washing the membrane with TBST, the membrane to which the peptide and type VII collagen were attached was allowed to react with a primary rabbit anti-human type VII collagen antibody (MyBioSource, Inc., San Diego, CA, USA, MBS2004594) at a dilution ratio of 1:800 and with a secondary antibody goat anti-rabbit Ig G (BETHYL Lab., Montgomery, TX, USA, A90-116P) at a dilution ratio of 1:5000. The reacted membrane was washed with TBST, and a chemiluminescence test was performed using WEST-one. Based on the results of measurement of the ability of the peptide to bind to type VII collagen depending on the peptide concentration, when the concentration of the peptide of SEQ ID NO: 1 was 10 μg/mL or more or the concentration of the peptide of SEQ ID NO: 3 was 5 μg/mL or more, the ability thereof to bind to type VII collagen was confirmed (FIG. 2).

type VII collagen [2] = target: T2, type VII collagen; assay: Slot blotting, selectivity to collagen types: type VII (Experimental Example 2); type: binding
Method: as §3

[3] = test system: colonic epithelial cells (Caco-2 cell); assay: Proliferation of colonic epithelial cells (CCK-8); type: cell-based; settings: 100 μM, 3rd day, FIG. 5
Method: In order to confirm the proliferation and migration in colonic epithelial cells (Caco-2 cell, ATCC® HTB-37™) by the peptide according to the present invention, the cells were dispensed in an amount of 5×10^3 cells/well in a 96-well plate and then cultured for 24 hours in DMEM (Dulbecco's Modified Eagle Medium, Gibco). The peptides (SEQ ID NOS: 1, 2, and 3) were dispensed at a concentration of 100 μM in the cells and then cultured for up to 3 days at intervals of 1 day. The cell count was measured using a CCK-8 (Cell Counting Kit-8, CK04, Dojindo Lab.). After 1, 2, and 3 days, the medium containing the peptide was removed, 10% of a CCK-8 solution was added to fresh DMEM, and 100 μl thereof was then dispensed. After 1 hour and 30 minutes, absorbance was measured at 450 nm.

Caco-2 cells = assay: Scratch migration of colonic epithelial cells; type: cell-based; settings: Caco-2 scratch, 100 μM, FIG. 6
Method: In order to measure cell migration ability, Caco-2 cells (1×10^6 cells) were placed in a 6-well plate and cultured in DMEM supplemented with 10% fetal bovine serum (FBS) and 1% antibiotic-antimycotic solution (Gibco, Grand Island, N.Y., USA). The cells were washed with PBS and allowed to stand overnight in a medium containing 2% FBS. The central portion of the cell layer was scratched using a sterile 200 μl plastic pipette tip. The scratched cell layer was washed twice with PBS to remove unadhered cells. Each of the peptides of SEQ ID NOS: […] at a concentration of 100 μM to the medium, followed by culture for up to 48 hours. The extent of cell migration toward the center from the scratched edges was measured using an Olympus CKX41 inverted microscope (magnification: ×20).

E-cadherin = assay: Real-time RT-PCR of wound-healing marker E-cadherin in colonic epithelial cells; type: cell-based; settings: Caco-2 cells; 50 and 100 μg/ml; 3 days; FIG. 4
Method: as §1, §2

T2 sequence (Q02388 17-2944): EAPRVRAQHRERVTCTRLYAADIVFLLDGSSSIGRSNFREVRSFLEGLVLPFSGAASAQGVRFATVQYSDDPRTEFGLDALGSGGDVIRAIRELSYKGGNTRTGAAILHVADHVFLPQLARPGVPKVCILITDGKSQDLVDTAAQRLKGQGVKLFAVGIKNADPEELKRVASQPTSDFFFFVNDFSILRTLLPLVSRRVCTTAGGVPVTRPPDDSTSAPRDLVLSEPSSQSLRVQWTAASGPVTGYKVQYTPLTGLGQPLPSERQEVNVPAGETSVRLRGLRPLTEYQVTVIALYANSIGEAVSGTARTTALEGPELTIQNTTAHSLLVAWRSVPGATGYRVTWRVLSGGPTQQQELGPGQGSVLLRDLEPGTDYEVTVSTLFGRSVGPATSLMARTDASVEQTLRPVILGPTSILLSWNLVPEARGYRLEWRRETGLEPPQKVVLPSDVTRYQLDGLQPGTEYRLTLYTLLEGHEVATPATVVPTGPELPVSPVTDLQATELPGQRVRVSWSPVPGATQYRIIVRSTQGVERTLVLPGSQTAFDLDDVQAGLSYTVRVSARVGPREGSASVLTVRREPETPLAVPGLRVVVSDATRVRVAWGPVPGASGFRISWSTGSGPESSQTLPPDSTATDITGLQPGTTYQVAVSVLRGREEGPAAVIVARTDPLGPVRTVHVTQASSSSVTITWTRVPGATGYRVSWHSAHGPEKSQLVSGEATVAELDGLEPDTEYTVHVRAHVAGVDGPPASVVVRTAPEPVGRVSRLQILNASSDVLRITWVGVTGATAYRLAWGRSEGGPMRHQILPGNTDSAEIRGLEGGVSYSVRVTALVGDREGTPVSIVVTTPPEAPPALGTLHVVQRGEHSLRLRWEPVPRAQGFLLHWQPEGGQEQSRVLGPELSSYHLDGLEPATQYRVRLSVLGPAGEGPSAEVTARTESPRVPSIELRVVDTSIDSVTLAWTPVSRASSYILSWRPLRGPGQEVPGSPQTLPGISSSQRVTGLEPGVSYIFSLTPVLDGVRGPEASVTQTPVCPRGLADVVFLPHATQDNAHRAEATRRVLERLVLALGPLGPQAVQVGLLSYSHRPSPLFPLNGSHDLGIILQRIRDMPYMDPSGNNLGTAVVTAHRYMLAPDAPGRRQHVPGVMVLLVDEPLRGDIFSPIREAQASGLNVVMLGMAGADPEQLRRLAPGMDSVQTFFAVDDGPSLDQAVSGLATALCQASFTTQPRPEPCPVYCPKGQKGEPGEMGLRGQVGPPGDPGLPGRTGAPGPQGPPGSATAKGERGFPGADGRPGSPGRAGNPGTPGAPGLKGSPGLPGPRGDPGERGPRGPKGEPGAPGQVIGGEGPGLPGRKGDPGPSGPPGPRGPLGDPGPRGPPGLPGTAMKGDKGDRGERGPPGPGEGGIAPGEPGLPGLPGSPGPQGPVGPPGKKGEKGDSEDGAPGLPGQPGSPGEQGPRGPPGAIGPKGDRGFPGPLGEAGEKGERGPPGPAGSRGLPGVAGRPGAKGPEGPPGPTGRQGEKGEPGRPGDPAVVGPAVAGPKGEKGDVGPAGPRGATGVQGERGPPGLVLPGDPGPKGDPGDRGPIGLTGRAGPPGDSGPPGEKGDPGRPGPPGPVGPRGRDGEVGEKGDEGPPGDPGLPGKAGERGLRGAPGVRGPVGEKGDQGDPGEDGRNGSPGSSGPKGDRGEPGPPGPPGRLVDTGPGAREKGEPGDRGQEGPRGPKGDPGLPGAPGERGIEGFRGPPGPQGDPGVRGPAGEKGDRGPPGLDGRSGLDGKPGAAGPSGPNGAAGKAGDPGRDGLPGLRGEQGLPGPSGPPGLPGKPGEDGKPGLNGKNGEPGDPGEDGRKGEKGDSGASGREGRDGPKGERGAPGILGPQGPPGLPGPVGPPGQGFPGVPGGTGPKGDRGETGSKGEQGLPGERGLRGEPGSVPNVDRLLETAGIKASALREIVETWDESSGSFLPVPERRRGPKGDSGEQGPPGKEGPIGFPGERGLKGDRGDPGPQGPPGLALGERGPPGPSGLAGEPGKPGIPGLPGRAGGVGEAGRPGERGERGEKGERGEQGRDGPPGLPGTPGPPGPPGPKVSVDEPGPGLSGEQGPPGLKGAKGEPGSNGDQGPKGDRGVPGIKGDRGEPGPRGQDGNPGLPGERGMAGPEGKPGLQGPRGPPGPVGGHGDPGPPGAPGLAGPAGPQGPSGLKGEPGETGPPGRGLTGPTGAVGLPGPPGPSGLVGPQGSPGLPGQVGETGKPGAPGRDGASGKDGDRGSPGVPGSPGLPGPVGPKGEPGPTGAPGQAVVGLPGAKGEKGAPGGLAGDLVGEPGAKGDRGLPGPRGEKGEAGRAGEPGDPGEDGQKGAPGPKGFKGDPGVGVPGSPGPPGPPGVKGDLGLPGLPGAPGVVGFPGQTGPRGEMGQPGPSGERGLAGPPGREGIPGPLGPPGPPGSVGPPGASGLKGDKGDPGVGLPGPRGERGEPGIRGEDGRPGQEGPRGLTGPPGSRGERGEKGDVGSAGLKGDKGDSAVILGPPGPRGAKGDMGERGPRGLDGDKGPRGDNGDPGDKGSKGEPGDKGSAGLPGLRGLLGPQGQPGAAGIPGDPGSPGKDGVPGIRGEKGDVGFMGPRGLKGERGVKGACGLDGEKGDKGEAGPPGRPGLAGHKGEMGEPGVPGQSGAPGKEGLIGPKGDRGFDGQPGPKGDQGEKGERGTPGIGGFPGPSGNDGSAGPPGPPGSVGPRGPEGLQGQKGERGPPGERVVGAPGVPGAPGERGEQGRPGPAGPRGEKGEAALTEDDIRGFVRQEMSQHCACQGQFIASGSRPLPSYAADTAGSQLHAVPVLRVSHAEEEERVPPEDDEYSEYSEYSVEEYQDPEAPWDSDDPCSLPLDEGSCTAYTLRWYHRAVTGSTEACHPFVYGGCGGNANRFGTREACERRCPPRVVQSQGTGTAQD
T1 sequence (P02452 162-1218): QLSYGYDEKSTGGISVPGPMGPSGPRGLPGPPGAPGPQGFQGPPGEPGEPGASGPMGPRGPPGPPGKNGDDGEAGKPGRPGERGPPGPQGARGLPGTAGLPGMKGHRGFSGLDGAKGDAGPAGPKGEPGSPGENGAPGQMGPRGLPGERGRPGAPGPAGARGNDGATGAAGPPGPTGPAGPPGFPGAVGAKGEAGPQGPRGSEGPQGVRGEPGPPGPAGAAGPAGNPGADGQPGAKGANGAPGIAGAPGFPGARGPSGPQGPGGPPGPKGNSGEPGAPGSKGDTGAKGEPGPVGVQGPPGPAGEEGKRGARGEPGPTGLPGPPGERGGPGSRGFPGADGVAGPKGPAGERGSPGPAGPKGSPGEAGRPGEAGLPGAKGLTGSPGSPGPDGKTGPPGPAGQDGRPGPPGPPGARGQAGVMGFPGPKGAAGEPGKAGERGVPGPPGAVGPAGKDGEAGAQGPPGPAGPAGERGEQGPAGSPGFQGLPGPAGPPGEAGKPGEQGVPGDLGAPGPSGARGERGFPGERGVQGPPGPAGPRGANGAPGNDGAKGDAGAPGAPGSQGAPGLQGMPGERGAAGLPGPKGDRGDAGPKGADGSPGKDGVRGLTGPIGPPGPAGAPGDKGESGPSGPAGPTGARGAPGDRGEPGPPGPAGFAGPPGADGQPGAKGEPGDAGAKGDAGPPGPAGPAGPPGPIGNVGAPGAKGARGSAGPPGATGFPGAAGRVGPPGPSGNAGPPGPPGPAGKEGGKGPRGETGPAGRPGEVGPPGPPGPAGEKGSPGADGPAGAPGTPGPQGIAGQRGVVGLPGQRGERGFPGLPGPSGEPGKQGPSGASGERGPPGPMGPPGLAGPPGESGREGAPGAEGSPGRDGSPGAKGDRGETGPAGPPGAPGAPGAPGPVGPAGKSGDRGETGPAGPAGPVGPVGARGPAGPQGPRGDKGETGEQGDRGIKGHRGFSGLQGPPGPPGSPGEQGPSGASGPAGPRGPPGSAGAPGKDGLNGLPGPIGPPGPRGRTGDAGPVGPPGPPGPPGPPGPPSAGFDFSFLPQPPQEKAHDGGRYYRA
T1 sequence (P08123 80-1119): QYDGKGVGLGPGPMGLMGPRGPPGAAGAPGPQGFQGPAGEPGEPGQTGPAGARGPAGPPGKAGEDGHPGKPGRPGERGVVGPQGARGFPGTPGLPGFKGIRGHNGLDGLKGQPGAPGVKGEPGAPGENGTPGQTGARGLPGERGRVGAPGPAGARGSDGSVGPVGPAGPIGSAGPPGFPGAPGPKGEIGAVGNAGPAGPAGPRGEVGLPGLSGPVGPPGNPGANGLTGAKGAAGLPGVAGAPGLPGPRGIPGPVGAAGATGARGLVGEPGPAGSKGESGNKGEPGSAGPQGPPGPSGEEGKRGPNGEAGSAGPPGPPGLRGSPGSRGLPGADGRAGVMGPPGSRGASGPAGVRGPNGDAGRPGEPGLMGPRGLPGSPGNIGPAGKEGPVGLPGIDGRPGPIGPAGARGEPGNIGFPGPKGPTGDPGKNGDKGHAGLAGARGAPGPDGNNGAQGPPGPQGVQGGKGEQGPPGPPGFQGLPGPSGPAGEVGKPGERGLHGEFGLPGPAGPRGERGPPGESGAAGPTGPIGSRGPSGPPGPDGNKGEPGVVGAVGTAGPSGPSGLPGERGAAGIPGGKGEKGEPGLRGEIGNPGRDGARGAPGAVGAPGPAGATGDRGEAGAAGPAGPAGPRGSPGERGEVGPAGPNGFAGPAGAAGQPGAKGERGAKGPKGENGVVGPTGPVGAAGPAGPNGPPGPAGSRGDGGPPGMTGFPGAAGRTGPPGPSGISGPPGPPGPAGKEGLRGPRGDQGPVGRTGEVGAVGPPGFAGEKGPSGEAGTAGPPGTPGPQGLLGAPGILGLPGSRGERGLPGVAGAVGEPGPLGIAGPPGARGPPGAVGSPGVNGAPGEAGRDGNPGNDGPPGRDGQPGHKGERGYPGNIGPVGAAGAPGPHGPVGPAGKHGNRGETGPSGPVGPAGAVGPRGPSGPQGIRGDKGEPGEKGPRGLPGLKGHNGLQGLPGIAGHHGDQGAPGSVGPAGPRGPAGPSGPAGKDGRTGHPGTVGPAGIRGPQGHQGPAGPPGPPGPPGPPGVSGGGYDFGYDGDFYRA

Sequence: LTEFPLRMRDWLKN (Human osteonectin 160-173) [SEQ ID NO: 3]
- gene expression of ZO-1 (ZO-1): increased with an increase in the concentration of the peptide
- binding to type IV collagen (type IV collagen): did not bind
- peptide concentration at which binding to type I collagen was observed (type I collagen): 100 µg/mL
- peptide concentration at which the ability to bind to type VII collagen was confirmed (type VII collagen [1]): ≥ 5 µg/mL
- selectivity to type VII collagen versus types I and IV collagen (type VII collagen [2]): higher selectivity to type VII collagen
- peptide concentration at which binding to type VII collagen was observed (type VII collagen [2]; peptide at 5, 10, 25, 50 and 100 μg/mL, FIG. 3): at least 10 μg/mL
- cell proliferation rate compared to the control group (cells not treated with the peptide) [3]: 51%
- migration area (Caco-2 cells; 2nd day): 56%
- cell migration compared to cells not treated with the peptide (Caco-2 cells; up to 48 hours): increased cell migration
- gene expression of E-cadherin (E-cadherin): increased with an increase in the concentration of the peptide
